Experimental data reported in patent US20060142304A1, “Method for treating or preventing pruritic and neurogenic skin disorders” (priority 2004, published 2006).
Structures can show the parent of a compound that is named as a salt.

What was measured:
CD-1 mice [1] = test: Resiniferatoxin-induced neurogenic inflammation (ear edema) in the mouse ear; type: in vivo; settings: for % Inhibition of the Ear Edema: topical to left ear (20 μL) immediately after resiniferatoxin (0.05%) challenge, 7-mm ear biopsy weight 30 minutes after, lidocaine 0.5% w/v, sertaconazole nitrate 1% w/v in 70% ethanol/30% propylene glycol
Method: Eight Albino male CD-1 mice per group, 7-9 weeks old, were used. Induction of neurogenic inflammation in the mouse ear was based on known methods (Inoue H, et al., Br J Pharmacol. 110:1614-1620, 1993). A 20-μl volume of Resiniferatoxin (0.05%) prepared in acetone was applied to the left ears (8 mice per treatment group). The right ear was treated as a control and not treated. Lidocaine hydrochloride (Sigma Aldrich, St. Louis, Mo.) was prepared as a 0.5% w/v solution in 70% ethanol/30% propylene glycol vehicle. Sertaconazole nitrate (Grupo Ferrer International, Barcelona, Spain) was prepared as a 1.0% w/v solution in a 70% ethanol/30% propylene glycol vehicle and applied to the left ear (20 μL) immediately after resiniferatoxin challenge. The mice were sacrificed by CO2 inhalation 30 minutes after applying the solutions. The left and right ears were removed and a 7-mm biopsy was removed from each ear and weighed. The difference in biopsy weights between the right and left ear was calculated. The percent inhibition was calculated by comparing treatments to resiniferatoxin alone. Anti-neurogenic inflammation effects of compounds are evident as an inhibition of the increase in ear weight.

CD-1 mice [2] = test: Substance P-induced itch-associated scratching behavior in mice; type: in vivo, mouse
Excerpt: In this model, an itch-associated response is induced by intradermal injection of the neuropetide, Substance-P, in mice, and scratching behavior is observed and quantitated. […] Clinically, scratching is used as an objective measure of itch since itch is a sensation which promotes the desire to scratch the stimulated area (Yosipovitch G., Definitions of Itch, in Itch Basic Mechanisms and Therapy, ed. Yosipovitch G., et al, 2003) Eight Albino male CD-1 mice per group, 7-9 weeks old, were used. Induction of scratching behavior in the mouse was based on known methods (Andoh T, et al., J Pharmacol Exp Ther. 286:1140-1145, 1998) and produces features similar to itch in humans. An itch-associated response was induced by intradermal injection of Substance P in CD-1 mice, and scratching behavior is observed and quantitated. Before the experiment, mice were individually housed in a plastic cage for at least 1 hour for acclimation. Mice are pre-treated for 30 minutes with topical application of Sertaconazole Nitrate (1%) prepared in 100% ethanol, to an area of the back, which had been shaved one day prior to the experiment. […] The number of scratches elicited during a 30 minute period after injection of Substance-P was determined by playback of the videotape.

SMILES | % Inhibition of the Ear Edema (CD-1 mice [1]) [%] | reducing neurogenic inflammation (result in words) (CD-1 mice [1]; resiniferatoxin mouse ear model, compared to the control or untreated ear) | reduction of the itch compared to placebo (CD-1 mice [2]; Substance P scratching model, topical 1% sertaconazole nitrate) [%] | Scratches per 30 min (Mean ± S. D.) (CD-1 mice [2]; topical 1% w/v in 100% ethanol on shaved back, 30 minutes pre-treatment, 300 ug Substance P intradermal, 30 minute period after injection)
CCN(CC)CC(=O)Nc1c(C)cccc1C [Lidocaine, Lidocaine hydrochloride] | 28.7 |  |  | 
Clc1ccc(C(Cn2ccnc2)OCc2csc3c(Cl)cccc23)c(Cl)c1 (centres unmarked) [Sertaconazole Nitrate, Sertaconazole nitrate] | 48.9 | highly effective | 38.7 | 39.8 ± 2.7
